Test results taken from the supplement of paper PMC10733146.

Experiments:
Experiment in all cases: viability relative to DMSO control (fraction); higher = less drug effect (more viable cells)
Details in all cases: 48 h
ERK5-IN-1 = compound: CCOc1cc(C(=O)N2CCC(N3CCN(C)CC3)CC2)ccc1Nc1ncc2c(n1)N(C1CCCC1)c1ccccc1C(=O)N2C [ERK5-IN-1]
Summary of the method: (§1)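 Cells were incubated for 48 h at 37 °C and 5% CO2 in RPMI-1640 with penicillin/streptomycin, L-glutamine and human serum, at 4 × 10^4 cells per well in 384-well plates with compounds pre-plated at five concentrations, one well each. These were primary mononuclear tumour cells, fresh or cryopreserved, Ficoll-isolated from blood or bone marrow or obtained from processed lymph node. Viability values are CellTiter-Glo luminescence relative to the median of 16 inner DMSO wells.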

Idarubicin = compound: CC(=O)[C@]1(O)Cc2c(O)c3c(c(O)c2[C@@H](O[C@H]2C[C@H](N)[C@H](O)[C@H](C)O2)C1)C(=O)c1ccccc1C3=O [Idarubicin]
Summary of the method: as §1

Birinapant = compound: CC[C@H](NC(=O)[C@H](C)NC)C(=O)N1C[C@@H](O)C[C@H]1Cc1c(-c2[nH]c3cc(F)ccc3c2C[C@@H]2C[C@H](O)CN2C(=O)[C@H](CC)NC(=O)[C@H](C)NC)[nH]c2cc(F)ccc12 [Birinapant]
Summary of the method: as §1

Vincristine = compound: CC[C@]1(O)C[C@H]2CN(CCc3c([nH]c4ccccc34)[C@@](C(=O)OC)(c3cc4c(cc3OC)N(C=O)[C@H]3[C@@](O)(C(=O)OC)[C@H](OC(C)=O)[C@]5(CC)C=CCN6CC[C@]43[C@@H]65)C2)C1 [Vincristine]
Summary of the method: as §1

Obatoclax mesylate = compound: COC1=CC(c2cc3ccccc3[nH]2)=N/C1=C\c1[nH]c(C)cc1C [Obatoclax mesylate]
Summary of the method: as §1

TMP269 = compound: O=C(NCC1(c2nc(-c3ccccc3)cs2)CCOCC1)c1cccc(-c2noc(C(F)(F)F)n2)c1 [TMP269]
Summary of the method: as §1

Quizartinib = compound: CC(C)(C)c1cc(NC(=O)Nc2ccc(-c3cn4c(n3)sc3cc(OCCN5CCOCC5)ccc34)cc2)no1 [Quizartinib]
Summary of the method: as §1

[1] = compound: CC(C)(C)OC(=O)Nc1ccc(-c2cc(C(=O)NCCCCCCC(=O)NO)no2)cc1
Summary of the method: as §1

ONO-4059 = compound: CC#CC(=O)N1CC[C@@H](n2c(=O)n(-c3ccc(Oc4ccccc4)cc3)c3c(N)ncnc32)C1 [ONO-4059]
Summary of the method: as §1

Imatinib = compound: Cc1ccc(NC(=O)c2ccc(CN3CCN(C)CC3)cc2)cc1Nc1nccc(-c2cccnc2)n1 [Imatinib]
Summary of the method: as §1

Cladribine = compound: Nc1nc(Cl)nc2c1ncn2[C@H]1C[C@H](O)[C@@H](CO)O1 [Cladribine]
Summary of the method: as §1

Rigosertib = compound: COc1cc(OC)c(/C=C/S(=O)(=O)Cc2ccc(OC)c(NCC(=O)O)c2)c(OC)c1 [Rigosertib]
Summary of the method: as §1

Tozasertib = compound: Cc1cc(Nc2cc(N3CCN(C)CC3)nc(Sc3ccc(NC(=O)C4CC4)cc3)n2)n[nH]1 [Tozasertib]
Summary of the method: as §1

Carfilzomib = compound: CC(C)C[C@H](NC(=O)[C@H](CCc1ccccc1)NC(=O)CN1CCOCC1)C(=O)N[C@@H](Cc1ccccc1)C(=O)N[C@@H](CC(C)C)C(=O)[C@@]1(C)CO1 [Carfilzomib]
Summary of the method: as §1

## primary AML patient cells (S060)
ERK5-IN-1; 0.024 µM
  viability: 1.01
ERK5-IN-1; 0.12 µM
  viability: 0.981
ERK5-IN-1; 0.6 µM
  viability: 0.987
ERK5-IN-1; 3 µM
  viability: 0.769
ERK5-IN-1; 15 µM
  viability: 0.239
Idarubicin; 0.024 µM
  viability: 1.14
Idarubicin; 0.12 µM
  viability: 1.04
Idarubicin; 0.6 µM
  viability: 0.463
Idarubicin; 3 µM
  viability: 0.0162
Idarubicin; 15 µM
  viability: 0.0156
Birinapant; 0.0008 µM
  viability: 0.911
Birinapant; 0.004 µM
  viability: 0.928
Birinapant; 0.02 µM
  viability: 0.95
Birinapant; 0.1 µM
  viability: 0.886
Birinapant; 0.5 µM
  viability: 0.793
Vincristine; 0.016 µM
  viability: 1.01
Vincristine; 0.08 µM
  viability: 0.971
Vincristine; 0.4 µM
  viability: 0.839
Vincristine; 2 µM
  viability: 0.82
Vincristine; 10 µM
  viability: 0.922
Obatoclax mesylate; 0.024 µM
  viability: 1.04
Obatoclax mesylate; 0.12 µM
  viability: 0.957
Obatoclax mesylate; 0.6 µM
  viability: 0.864
Obatoclax mesylate; 3 µM
  viability: 0.507
Obatoclax mesylate; 15 µM
  viability: 0.139
TMP269; 0.024 µM
  viability: 1.06
TMP269; 0.12 µM
  viability: 1.12
TMP269; 0.6 µM
  viability: 1.14
TMP269; 3 µM
  viability: 1.04
TMP269; 15 µM
  viability: 1.04
Quizartinib; 0.016 µM
  viability: 1.1
Quizartinib; 0.08 µM
  viability: 1.14
Quizartinib; 0.4 µM
  viability: 1.15
Quizartinib; 2 µM
  viability: 1.09
Quizartinib; 10 µM
  viability: 0.998
[1]; 0.024 µM
  viability: 1.09
[1]; 0.12 µM
  viability: 1.05
[1]; 0.6 µM
  viability: 0.969
[1]; 3 µM
  viability: 0.206
[1]; 15 µM
  viability: 0.0414
ONO-4059; 0.0016 µM
  viability: 1.03
ONO-4059; 0.008 µM
  viability: 1.06
ONO-4059; 0.04 µM
  viability: 1.03
ONO-4059; 0.2 µM
  viability: 1.09
ONO-4059; 1 µM
  viability: 1.1
Imatinib; 0.016 µM
  viability: 1.06
Imatinib; 0.4 µM
  viability: 1.05
Imatinib; 2 µM
  viability: 0.971
Imatinib; 10 µM
  viability: 1.04
Cladribine; 0.024 µM
  viability: 1.02
Cladribine; 0.12 µM
  viability: 0.711
Cladribine; 0.6 µM
  viability: 0.249
Cladribine; 3 µM
  viability: 0.0776
Cladribine; 15 µM
  viability: 0.0416
Rigosertib; 0.008 µM
  viability: 0.918
Rigosertib; 0.04 µM
  viability: 0.95
Rigosertib; 0.2 µM
  viability: 0.975
Rigosertib; 1 µM
  viability: 0.928
Rigosertib; 5 µM
  viability: 0.87
Tozasertib; 0.024 µM
  viability: 0.98
Tozasertib; 0.12 µM
  viability: 0.92
Tozasertib; 0.6 µM
  viability: 0.959
Tozasertib; 3 µM
  viability: 1.02
Tozasertib; 15 µM
  viability: 0.689
Carfilzomib; 0.00016 µM
  viability: 1.03
Carfilzomib; 0.0008 µM
  viability: 1
Carfilzomib; 0.004 µM
  viability: 0.672
Carfilzomib; 0.02 µM
  viability: 0.0981
Carfilzomib; 0.1 µM
  viability: 0.0286

## primary DLBCL patient cells (S082)
ERK5-IN-1; 0.024 µM
  viability: 0.854
ERK5-IN-1; 0.12 µM
  viability: 0.818
ERK5-IN-1; 0.6 µM
  viability: 0.621
ERK5-IN-1; 3 µM
  viability: 0.265
ERK5-IN-1; 15 µM
  viability: 0.224
Idarubicin; 0.024 µM
  viability: 0.992
Idarubicin; 0.12 µM
  viability: 0.622
Idarubicin; 0.6 µM
  viability: 0.328
Idarubicin; 3 µM
  viability: 0.0161
Idarubicin; 15 µM
  viability: 0.0147
Birinapant; 0.0008 µM
  viability: 0.923
Birinapant; 0.004 µM
  viability: 1.04
Birinapant; 0.02 µM
  viability: 1.12
Birinapant; 0.1 µM
  viability: 1.09
Birinapant; 0.5 µM
  viability: 1.06
Vincristine; 0.016 µM
  viability: 0.609
Vincristine; 0.08 µM
  viability: 0.561
Vincristine; 0.4 µM
  viability: 0.474
Vincristine; 2 µM
  viability: 0.446
Vincristine; 10 µM
  viability: 0.396
Obatoclax mesylate; 0.024 µM
  viability: 0.989
Obatoclax mesylate; 0.12 µM
  viability: 1.34
Obatoclax mesylate; 0.6 µM
  viability: 1.58
Obatoclax mesylate; 3 µM
  viability: 1.41
Obatoclax mesylate; 15 µM
  viability: 0.681
TMP269; 0.024 µM
  viability: 0.909
TMP269; 0.12 µM
  viability: 0.885
TMP269; 0.6 µM
  viability: 0.891
TMP269; 3 µM
  viability: 0.819
TMP269; 15 µM
  viability: 0.873
Quizartinib; 0.016 µM
  viability: 1.06
Quizartinib; 0.08 µM
  viability: 1.13
Quizartinib; 0.4 µM
  viability: 1.01
Quizartinib; 2 µM
  viability: 1.07
Quizartinib; 10 µM
  viability: 1.15
[1]; 0.024 µM
  viability: 0.786
[1]; 0.12 µM
  viability: 0.499
[1]; 0.6 µM
  viability: 0.13
[1]; 3 µM
  viability: 0.0294
[1]; 15 µM
  viability: 0.0162
ONO-4059; 0.0016 µM
  viability: 0.786
ONO-4059; 0.008 µM
  viability: 0.587
ONO-4059; 0.04 µM
  viability: 0.483
ONO-4059; 0.2 µM
  viability: 0.413
ONO-4059; 1 µM
  viability: 0.391
Imatinib; 0.016 µM
  viability: 1.08
Imatinib; 0.4 µM
  viability: 1.2
Imatinib; 2 µM
  viability: 1.16
Imatinib; 10 µM
  viability: 1.36
Cladribine; 0.024 µM
  viability: 0.858
Cladribine; 0.12 µM
  viability: 0.613
Cladribine; 0.6 µM
  viability: 0.476
Cladribine; 3 µM
  viability: 0.442
Cladribine; 15 µM
  viability: 0.399
Rigosertib; 0.008 µM
  viability: 0.954
Rigosertib; 0.04 µM
  viability: 0.973
Rigosertib; 0.2 µM
  viability: 0.931
Rigosertib; 1 µM
  viability: 0.771
Rigosertib; 5 µM
  viability: 0.524
Tozasertib; 0.024 µM
  viability: 0.94
Tozasertib; 0.12 µM
  viability: 0.892
Tozasertib; 0.6 µM
  viability: 0.821
Tozasertib; 3 µM
  viability: 0.618
Tozasertib; 15 µM
  viability: 0.364
Carfilzomib; 0.00016 µM
  viability: 0.895
Carfilzomib; 0.0008 µM
  viability: 1.01
Carfilzomib; 0.004 µM
  viability: 0.0334
Carfilzomib; 0.02 µM
  viability: 0.018
Carfilzomib; 0.1 µM
  viability: 0.0218

## primary AML patient cells (S079)
ERK5-IN-1; 0.024 µM
  viability: 0.867
ERK5-IN-1; 0.12 µM
  viability: 0.779
ERK5-IN-1; 0.6 µM
  viability: 0.644
ERK5-IN-1; 3 µM
  viability: 0.424
ERK5-IN-1; 15 µM
  viability: 0.192
Idarubicin; 0.024 µM
  viability: 0.758
Idarubicin; 0.12 µM
  viability: 0.604
Idarubicin; 0.6 µM
  viability: 0.118
Idarubicin; 3 µM
  viability: 0.0155
Idarubicin; 15 µM
  viability: 0.0137
Birinapant; 0.0008 µM
  viability: 0.788
Birinapant; 0.004 µM
  viability: 0.805
Birinapant; 0.02 µM
  viability: 0.564
Birinapant; 0.1 µM
  viability: 0.402
Birinapant; 0.5 µM
  viability: 0.276
Vincristine; 0.016 µM
  viability: 0.853
Vincristine; 0.08 µM
  viability: 0.847
Vincristine; 0.4 µM
  viability: 0.641
Vincristine; 2 µM
  viability: 0.577
Vincristine; 10 µM
  viability: 0.409
Obatoclax mesylate; 0.024 µM
  viability: 0.983
Obatoclax mesylate; 0.12 µM
  viability: 1.01
Obatoclax mesylate; 0.6 µM
  viability: 0.852
Obatoclax mesylate; 3 µM
  viability: 0.557
Obatoclax mesylate; 15 µM
  viability: 0.281
TMP269; 0.024 µM
  viability: 0.968
TMP269; 0.12 µM
  viability: 0.899
TMP269; 0.6 µM
  viability: 0.91
TMP269; 3 µM
  viability: 0.805
TMP269; 15 µM
  viability: 0.792
Quizartinib; 0.016 µM
  viability: 1.05
Quizartinib; 0.08 µM
  viability: 1.08
Quizartinib; 0.4 µM
  viability: 1.03
Quizartinib; 2 µM
  viability: 1.06
Quizartinib; 10 µM
  viability: 0.971
[1]; 0.024 µM
  viability: 0.872
[1]; 0.12 µM
  viability: 0.743
[1]; 0.6 µM
  viability: 0.574
[1]; 3 µM
  viability: 0.168
[1]; 15 µM
  viability: 0.085
ONO-4059; 0.0016 µM
  viability: 0.891
ONO-4059; 0.008 µM
  viability: 0.863
ONO-4059; 0.04 µM
  viability: 0.868
ONO-4059; 0.2 µM
  viability: 1.03
ONO-4059; 1 µM
  viability: 0.934
Imatinib; 0.016 µM
  viability: 1.06
Imatinib; 0.08 µM
  viability: 1.04
Imatinib; 0.4 µM
  viability: 1.04
Imatinib; 2 µM
  viability: 1.04
Cladribine; 0.024 µM
  viability: 0.609
Cladribine; 0.12 µM
  viability: 0.235
Cladribine; 0.6 µM
  viability: 0.0997
Cladribine; 3 µM
  viability: 0.0674
Cladribine; 15 µM
  viability: 0.0581
Rigosertib; 0.008 µM
  viability: 0.9
Rigosertib; 0.04 µM
  viability: 0.941
Rigosertib; 0.2 µM
  viability: 0.793
Rigosertib; 1 µM
  viability: 0.874
Rigosertib; 5 µM
  viability: 0.749
Tozasertib; 0.024 µM
  viability: 0.913
Tozasertib; 0.12 µM
  viability: 0.846
Tozasertib; 0.6 µM
  viability: 0.775
Tozasertib; 3 µM
  viability: 0.681
Tozasertib; 15 µM
  viability: 0.425
Carfilzomib; 0.00016 µM
  viability: 0.865
Carfilzomib; 0.0008 µM
  viability: 0.923
Carfilzomib; 0.004 µM
  viability: 0.145
Carfilzomib; 0.02 µM
  viability: 0.0267
Carfilzomib; 0.1 µM
  viability: 0.0257
